Literature values, collected in patent publication US6500801B1, “Treatment for Dutch elm disease” (The Governing Council of the University of Toronto, priority 1997, dated 2002).

Tested on: strains of O. ulmi

SMILES	inhibition of growth of strains of O. ulmi
CC1=CC2=C(C(=O)C1=O)C(C)CCC2C(C)C (stereo not drawn) [mansonone A]	inhibit the growth
CC1=C2OCC(C)c3ccc(C)c(c32)C(=O)C1=O (stereo not drawn) [mansonone E]	inhibit the growth
CC1=COC2=C(C)C(=O)C(=O)c3c(C)ccc1c32 [mansonone F]	inhibit the growth
CC1=Cc2c(c(C)cc3c2C(C)CO3)C(=O)C1=O (stereo not drawn) [mansonone D]	inhibit the growth
CC1=Cc2c(C(C)C)ccc(C)c2C(=O)C1=O [mansonone C]	inhibit the growth
CC1=Cc2c(c(C)cc(O)c2C(C)C)C(=O)C1=O [mansonone G]	inhibit the growth
